How the values were obtained:
Assay in all cases: relative viability (nuclei count vs DMSO), 5 days (fraction); higher = more cells survive
Trametinib + Tozasertib = compound: CC(=O)Nc1cccc(-n2c(=O)n(C3CC3)c(=O)c3c(Nc4ccc(I)cc4F)n(C)c(=O)c(C)c32)c1 [Trametinib] + Cc1cc(Nc2cc(N3CCN(C)CC3)nc(Sc3ccc(NC(=O)C4CC4)cc3)n2)n[nH]1 [Tozasertib] (partner 0.1 µM)
Outline: (§1)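 After 5 days of treatment, lung cancer cells in 1536-well plates were fixed and stained in a single step (final 0.05% Triton X-100, 1% formaldehyde, 1 ug/ml Hoechst) and their nuclei counted on 4× images. Treatment had been applied by pin tool the day after seeding as one drug alone or as a fixed anchor-drug dose with five library-drug doses (not always all listed) in √10 steps. Relative viability is the nuclei count of treated wells divided by that of vehicle wells, and values are medians of duplicate plates.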

Trametinib + Dasatinib = compound: CC(=O)Nc1cccc(-n2c(=O)n(C3CC3)c(=O)c3c(Nc4ccc(I)cc4F)n(C)c(=O)c(C)c32)c1 [Trametinib] + Cc1nc(Nc2ncc(C(=O)Nc3c(C)cccc3Cl)s2)cc(N2CCN(CCO)CC2)n1 [Dasatinib] (partner 0.075 µM)
Outline: as §1

[1] = compound: CN1C=C(C2=CC=CC=C21)/C=C\3/C4=C(C=CC=N4)NC3=O + CCNC(=O)c1noc(-c2cc(C(C)C)c(O)cc2O)c1-c1ccc(CN2CCOCC2)cc1 [Luminespib] (partner 0.01 µM)
Outline: as §1

[2] = compound: CN1C=C(C2=CC=CC=C21)/C=C\3/C4=C(C=CC=N4)NC3=O + Cc1nc(NC(=O)N2CCC[C@H]2C(N)=O)sc1-c1ccnc(C(C)(C)C(F)(F)F)c1 [Alpelisib] (partner 2 µM)
Outline: as §1

Cell Line | relative viability (Trametinib + Tozasertib; first compound 0.0025 µM) | relative viability (Trametinib + Tozasertib; first compound 0.007906 µM) | relative viability (Trametinib + Tozasertib; first compound 0.025 µM) | relative viability (Trametinib + Tozasertib; first compound 0.07906 µM) | relative viability (Trametinib + Tozasertib; first compound 0.25 µM) | relative viability (Trametinib + Dasatinib; first compound 0.0025 µM) | relative viability (Trametinib + Dasatinib; first compound 0.007906 µM) | relative viability (Trametinib + Dasatinib; first compound 0.025 µM) | relative viability (Trametinib + Dasatinib; first compound 0.07906 µM) | relative viability (Trametinib + Dasatinib; first compound 0.25 µM) | relative viability ([1]; first compound 0.02 µM) | relative viability ([1]; first compound 0.06325 µM) | relative viability ([1]; first compound 0.2 µM) | relative viability ([1]; first compound 0.6325 µM) | relative viability ([1]; first compound 2 µM) | relative viability ([2]; first compound 0.02 µM) | relative viability ([2]; first compound 0.06325 µM) | relative viability ([2]; first compound 0.2 µM) | relative viability ([2]; first compound 0.6325 µM) | relative viability ([2]; first compound 2 µM)
NCI-H661 | 0.365 | 0.378 | 0.432 | 0.389 | 0.404 | 0.816 | 0.796 | 0.565 | 0.481 | 0.513 | 1.06 | 0.875 | 0.946 | 0.973 | 0.917 | 0.889 | 0.591 | 0.423 | 0.402 | 0.591
CAL-12T | 0.275 | 0.273 | 0.196 | 0.199 | 0.202 | 0.232 | 0.219 | 0.268 | 0.165 | 0.104 | 0.22 | 0.561 | 0.48 | 0.432 | 0.381 | 1.47 | 0.924 | 1.1 | 1.16 | 1.06
HARA | 0.12 | 0.101 | 0.0849 | 0.108 | 0.0591 | 0.225 | 0.275 | 0.367 | 0.18 | 0.185 | 0.347 | 0.951 | – | 0.558 | 0.676 | 0.677 | 0.812 | 0.783 | 0.63 | 0.734
NCI-H596 | 0.867 | 0.733 | 0.602 | 0.784 | 0.464 | 0.533 | 0.535 | 0.495 | 0.487 | 0.303 | 1 | 1.01 | 0.858 | 0.93 | 0.866 | 0.545 | 0.413 | 0.529 | 0.49 | 0.493
LU99A | 0.234 | 0.272 | 0.232 | 0.244 | 0.232 | 0.529 | 0.535 | 0.376 | 0.363 | 0.317 | 0.265 | 0.255 | 0.275 | 0.355 | 0.28 | 0.479 | 0.487 | 0.555 | 0.5 | 0.504
LC-2-ad | 0.487 | 0.406 | 0.406 | 0.393 | 0.306 | 0.484 | 0.485 | 0.502 | 0.313 | 0.301 | 1.05 | 0.885 | 1.05 | 1.22 | 1.07 | 0.93 | 0.891 | 0.859 | 0.892 | 0.891
NCI-H1650 | 0.422 | 0.434 | 0.397 | 0.374 | 0.23 | 0.337 | 0.368 | 0.344 | 0.298 | 0.16 | 0.19 | 0.183 | 0.195 | 0.203 | 0.207 | – | – | – | – | –
NCI-H1915 | 0.453 | 0.337 | 0.268 | 0.219 | 0.165 | 0.273 | 0.203 | 0.196 | 0.109 | 0.0747 | 0.728 | 0.816 | 0.894 | 0.431 | 0.954 | 1.03 | 1.1 | 1.08 | 1.18 | 1.04
ABC-1 | 0.169 | 0.153 | 0.154 | 0.148 | 0.158 | 0.539 | 0.467 | 0.365 | 0.384 | 0.371 | – | 0.531 | – | 0.678 | 0.801 | 1.05 | 0.785 | 0.84 | 0.714 | 0.923
HCC-44 | 0.897 | 0.519 | 0.801 | 0.594 | 0.228 | – | – | – | – | – | 1.03 | 0.925 | – | 1.02 | 1.02 | 0.737 | 0.74 | 0.722 | 0.564 | 0.705
HCC-78 | 0.426 | 0.416 | 0.38 | 0.452 | 0.36 | 0.359 | 0.265 | 0.23 | 0.294 | 0.25 | – | – | – | – | – | 0.289 | 0.509 | 0.304 | 0.282 | 0.287
LXF-289 | 0.198 | 0.174 | 0.208 | 0.181 | 0.143 | 0.192 | 0.305 | 0.299 | 0.28 | 0.0945 | 0.668 | 0.662 | 0.741 | 0.69 | 0.785 | 1.09 | 1.06 | 1.12 | 1.02 | 1.1
201T | 0.985 | 0.835 | 0.795 | 0.798 | 0.653 | 0.555 | 0.59 | 0.579 | 0.521 | 0.484 | 1.01 | 1.06 | 1.12 | 1.03 | 1.15 | 0.998 | 1.04 | 1.08 | 1 | 0.913
NCI-H1734 | 0.255 | 0.243 | 0.216 | 0.203 | 0.205 | 0.54 | 0.592 | 0.399 | 0.56 | 0.387 | 0.212 | 0.208 | – | 0.203 | 0.866 | 0.706 | 0.663 | – | 0.675 | 0.662
NCI-H1623 | 0.355 | 0.364 | 0.299 | 0.256 | 0.314 | 0.487 | 0.449 | 0.306 | 0.378 | 0.618 | 0.422 | 0.473 | 0.428 | 0.446 | 0.289 | – | – | – | – | –
NCI-H2126 | 0.784 | 0.694 | 0.523 | 0.653 | 0.576 | 0.452 | 0.44 | 0.395 | 0.412 | 0.445 | 1 | 0.875 | 0.852 | 0.907 | 0.932 | 0.794 | 0.775 | 0.741 | 0.716 | 0.6
LOU-NH91 | 0.639 | 0.609 | 0.592 | 0.548 | 0.399 | 0.528 | 0.498 | 0.468 | 0.426 | 0.296 | 0.335 | 0.302 | 0.352 | 0.307 | 0.266 | 0.658 | 0.698 | 0.598 | 0.698 | 0.69
